Laboratory results as given in paper PMC8954816, “Quantitative Analysis of Daporinad (FK866) and Its In Vitro and In Vivo Metabolite Identification Using Liquid Chromatography-Quadrupole-Time-of-Flight Mass Spectrometry” (Molecules, 2022).
Where two headings read alike, the source gives them in different places.

What was measured:
[1] = Preliminary stability tests for Daporinad in mouse plasma; type: in vitro ADME; settings: 14 days, −20 °C, n = 3
[2] = as above; type: in vitro ADME; settings: for Freeze–thaw stability, mean accuracy: 3 cycles; for Freeze–thaw stability, mean accuracy / Short-term stability, mean accuracy: n = 3; for Short-term stability, mean accuracy: 4 h
Description: Daporinad was stable in mouse plasma for […] three cycles of freeze–thawing and also stable during at least 2 weeks at −80 °C storage condition.
Three levels of QC were used for the short-term, freeze–thaw and long-term stability assessments. The short-term stability assessment was carried out at RT for 4 h, and the long-term stability samples were kept frozen at −80 °C for 2 weeks. The freeze–thaw stability was evaluated over three cycles of freezing (−80 °C) and thawing (RT). The stability test results were evaluated by confirming that the mean accuracy (%) of the nominal value which should be within ±25% acceptance criteria.

[3] = Intravenous pharmacokinetic study of Daporinad in mice (plasma, LC-qTOF-MS, NCA); type: in vivo, mouse; settings: for AUC(0-t) / Cmax / clearance / half-life / Vd: male, ICR; for AUC(0-t) / Cmax / clearance / half-life: n = 3; for Vd: n = 3, read-out: Vss
Description: The developed LC-qTOF-MS method was successfully applied to obtain the PK parameters of Daporinad in mouse plasma following IV administration at the doses of 5, 10 and 30 mg/kg. The concentrations of most PK samples were within the qualified calibration curve except some PK samples at early time point samples. Therefore, early time point PK samples were diluted appropriately with blank mouse plasma to ensure that every sample concentration was within the calibration curve range. The PK parameters were calculated with the non-compartmental analysis (NCA) using WinNonlin (version 8.0.0) and the results are summarized in Table 4.
An aliquot of 4 µL of STD or QC working solutions were spiked into 20 µL of blank mouse plasma, and 4 µL of make-up DMSO was spiked into 20 µL of the mouse PK sample to make it the same matrix condition as the STD and QC sample. Then, 100 µL of ISTD solution was added to STD, QC and the study sample. Then, the samples were vortexed for about 1 min and centrifuged at 10,000× g rpm for 5 min. After centrifugation, 75 µL of supernatant was taken and mixed with 75 µL of DW. After that, the aliquot was transferred to an LC vial for the LC-qTOF-MS analysis.
Male ICR mice (30 ± 3 g) were purchased from the Samtako biokorea co. (Pocheon, Gyeonggi, Korea) and housed in groups of 6~8 per cage and given standard rodent chow. The animals were fasted overnight with free access to water for at least 12 h before administration. Mice were distributed into three different dosing groups (n = 3 for each dosing group; 5, 10 and 30 mg/kg). The blood sampling time points were 2, 10, 30, 60, 120, 240 and 420 min after administration. The sampling blood samples were centrifuged at 12,000× g rpm for 5 min and the plasma was transferred to another tube and then stored at −20 °C until further analysis. All experiment performed on the mouse were approved by abiding the animal care protocol (no. CNU-01104) from Chungnam National University. The procedures were abided by the guidelines established by the Association for Assessment and Accreditation of Laboratory Animal Care International (AAALAC International).
Data acquisition and LC-qTOF-MS operation was conducted using Analyst® TF Version 1.6 (Sciex, Foster City, CA, USA). MultiQuant® Version 2.1.1 (Sciex, Foster City, CA, USA) was used for the peak integration for Daporinad quantification. PeakView® Version 2.2 (Sciex, Foster City, CA, USA) and MetabolitePilot™ Version 2.0.2 (Sciex, Foster City, CA, USA) were used for the structural elucidation of Daporinad metabolites. The descriptive statistics for the qualification studies were calculated with Excel 2015 (Microsoft). Pharmacokinetic parameters were calculated in a non-compartmental analysis using WinNonlin® version 8.0.0 (Certara, Princeton, NJ, USA).

[4] = mouse plasma, dose range 10 to 30 mg/kg

O=C(/C=C/c1cccnc1)NCCCCC1CCN(C(=O)c2ccccc2)CC1 [Daporinad]
Long-term stability, mean accuracy ([1]; High QC (1820 ng/mL)): 91.4%
Long-term stability, mean accuracy ([1]; Low QC (15.0 ng/mL)): 111%
Long-term stability, mean accuracy ([1]; Medium QC (165 ng/mL)): 84.5%
Freeze–thaw stability, mean accuracy ([2]; mouse plasma, −80 °C, High QC (1820 ng/mL)): 116%
Freeze–thaw stability, mean accuracy ([2]; mouse plasma, −80 °C, Low QC (15.0 ng/mL)): 105%
Freeze–thaw stability, mean accuracy ([2]; mouse plasma, −80 °C, Medium QC (165 ng/mL)): 117%
Short-term stability, mean accuracy ([2]; mouse plasma, RT, High QC (1820 ng/mL)): 104%
Short-term stability, mean accuracy ([2]; mouse plasma, RT, Low QC (15.0 ng/mL)): 103%
Short-term stability, mean accuracy ([2]; mouse plasma, RT, Medium QC (165 ng/mL)): 102%
Time stable in mouse plasma at room temperature ([2]; mouse plasma, RT): at least 4 h
Time stable in mouse plasma at storage condition ([2]; mouse plasma, −80 °C storage): at least 2 weeks
Freeze–thaw stability in mouse plasma ([2]; −80 °C, three cycles of freeze–thawing): stable
AUC(0-t) ([3]; mouse plasma, 5 mg/kg): 2860 ng·h/mL
Cmax ([3]; mouse plasma, 5 mg/kg): 5480 ± 427 ng/mL
clearance ([3]; mouse plasma, 5 mg/kg): 29.3 ± 3.7 mL/min/kg
half-life ([3]; mouse plasma, 5 mg/kg): 52.9 ± 7.3 min
Vd ([3]; mouse plasma, 5 mg/kg): 0.897 ± 0.199 L/kg
AUC(0-t) ([3]; mouse plasma, 10 mg/kg): 5950 ng·h/mL
Cmax ([3]; mouse plasma, 10 mg/kg): 14900 ng/mL
clearance ([3]; mouse plasma, 10 mg/kg): 28.1 ± 2.78 mL/min/kg
half-life ([3]; mouse plasma, 10 mg/kg): 50.5 ± 4.88 min
Vd ([3]; mouse plasma, 10 mg/kg): 0.647 ± 0.0915 L/kg
AUC(0-t) ([3]; mouse plasma, 30 mg/kg): 29400 ng·h/mL
Cmax ([3]; mouse plasma, 30 mg/kg): 48100 ng/mL
clearance ([3]; mouse plasma, 30 mg/kg): 17.9 ± 5.11 mL/min/kg
half-life ([3]; mouse plasma, 30 mg/kg): 40.8 ± 0.95 min
Vd ([3]; mouse plasma, 30 mg/kg): 0.536 ± 0.11 L/kg
Dose proportionality of Cmax and AUC ([3]; mouse plasma, dose range 5 to 10 mg/kg): dose proportional
Dose proportionality of AUC [3, 4]: supra-proportional
Dose proportionality of Cmax [3, 4]: dose-proportional
Clearance classification ([3]; mouse, 5 to 30 mg/kg): low to moderate clearance
